What was measured:
Serine Kinase Zap-70 = molecular target: T1, Serine Kinase Zap-70 (Homo sapiens, UniProt P43403); test: AS-MS dissociation kinetics after quench with excess Staurosporine; type: binding; conditions: read-out: Dissociation rate ks2 (converted)
T1 sequence (P43403 1-619): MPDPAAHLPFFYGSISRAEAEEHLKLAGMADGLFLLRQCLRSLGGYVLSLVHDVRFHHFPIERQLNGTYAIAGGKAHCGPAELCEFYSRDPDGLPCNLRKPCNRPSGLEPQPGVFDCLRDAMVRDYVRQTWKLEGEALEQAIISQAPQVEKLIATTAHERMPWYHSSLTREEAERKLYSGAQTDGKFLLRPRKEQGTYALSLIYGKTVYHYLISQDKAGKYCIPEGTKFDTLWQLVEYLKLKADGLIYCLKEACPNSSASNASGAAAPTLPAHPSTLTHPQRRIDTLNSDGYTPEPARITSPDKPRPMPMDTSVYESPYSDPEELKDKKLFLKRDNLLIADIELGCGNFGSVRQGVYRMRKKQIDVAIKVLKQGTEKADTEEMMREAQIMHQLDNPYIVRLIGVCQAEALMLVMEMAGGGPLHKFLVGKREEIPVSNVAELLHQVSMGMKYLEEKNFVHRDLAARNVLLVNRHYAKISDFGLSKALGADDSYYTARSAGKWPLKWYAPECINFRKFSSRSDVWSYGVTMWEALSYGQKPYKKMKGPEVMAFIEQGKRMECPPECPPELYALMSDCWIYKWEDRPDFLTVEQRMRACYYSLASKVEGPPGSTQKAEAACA
Procedure: A mixture of 9 μM Zap-70 and 1 μM NGD-6380 is prepared and incubated at room temperature for 30 minutes, a time sufficient for the mixture to reach equilibrium of bound and unbound components. […] The resulting dissociation of NGD-6380 is measured over time at intervals of 20, 30, 40, 60, 70, 80, and 100 minutes. The dissociation of NGD-6380 is measured in the following manner. […] Any amount of NGD-6380 which is not bound to the Zap-70 is separated from the Zap-70-NGD-6380 complex by the size exclusion step. […] Thus, the dissociation of […] is seen by the decreasing amount of the signal response of the NGD-6380 over time. The decrease in the signal response of the NGD-6380 is plotted as a function of time and the experimental data is fit to the exponential decay function of formula (XVIII) using the program Mathematical (Wolfram Research Inc., version 4.1). [ES]=[ES]0e^-ks2·t formula (XVIII) A mixture of 9 μM Zap-70 and 1 μM of a mixture of the ligands depicted in Table 3 is prepared and incubated at room temperature for 30 minutes, a time sufficient for the mixture to reach equilibrium of bound and unbound components. […] The decrease in the signal response of the ligands is plotted as a function of time and the experimental data is fit to the exponential decay function of formula (XVIII) using the program Mathematica®. [ESi]=[[…] formula (XVIII)

[1] = molecular target: T2, muscarinic acetylcholine receptor M2 (Cavia porcellus, UniProt H0VRN8); test: Tissue-based assay for M2 antagonism
T2 sequence (H0VRN8 1-466): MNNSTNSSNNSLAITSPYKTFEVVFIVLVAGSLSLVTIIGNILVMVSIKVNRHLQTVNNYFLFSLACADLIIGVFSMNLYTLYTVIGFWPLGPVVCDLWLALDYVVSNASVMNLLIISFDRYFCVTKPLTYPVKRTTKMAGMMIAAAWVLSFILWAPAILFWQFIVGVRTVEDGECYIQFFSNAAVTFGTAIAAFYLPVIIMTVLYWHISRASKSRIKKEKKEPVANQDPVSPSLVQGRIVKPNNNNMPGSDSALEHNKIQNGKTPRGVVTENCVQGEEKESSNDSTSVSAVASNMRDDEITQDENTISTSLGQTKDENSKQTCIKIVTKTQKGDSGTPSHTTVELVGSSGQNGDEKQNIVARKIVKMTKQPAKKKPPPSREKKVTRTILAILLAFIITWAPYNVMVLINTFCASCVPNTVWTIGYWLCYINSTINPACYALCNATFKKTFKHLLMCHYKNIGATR

koff (Serine Kinase Zap-70) [s⁻¹]	activity in tissue [1]	Compound
0.000138	–	O=C(c1cc(NCc2ccc(C(F)(F)F)cc2)nc2ccc(-c3ccc4c(c3)OCO4)cc12)N1CCC[C@H]1CN1CCCC1 [NGD-6380]
0.000107	–	O=C(c1cc(NCc2ccc(C(F)(F)F)cc2)nc2ccc(-c3ccc4c(c3)OCCO4)cc12)N1CCC[C@H]1CN1CCCC1 [NGD-6862]
0.000275	–	O=C(c1cc(NCc2ccc(Cl)cc2)nc2ccc(-c3ccc4c(c3)OCO4)cc12)N1CCC[C@H]1CN1CCCC1 [NGD-6371]

The next lines start with the compound.

Compound	koff (Serine Kinase Zap-70) [s⁻¹]	activity in tissue [1]
O=C(c1cc(NCc2cccc(F)c2)nc2ccc(-c3ccc4c(c3)OCO4)cc12)N1CCC[C@H]1CN1CCCC1 [NGD-6367]	0.000493	–
CN(Cc1ccccc1)c1cc(C(=O)N2CCC[C@H]2CN2CCCC2)c2cc(-c3ccc4c(c3)OCO4)ccc2n1 [NGD-6073]	0.000117	–
CN(Cc1ccc(Cl)c(Cl)c1)c1cc(C(=O)N2CCC[C@H]2CN2CCCC2)c2cc(-c3ccc4c(c3)OCO4)ccc2n1 [NGD-6432]	0.000117	–
CC(CNc1cc(C(=O)N2CCC[C@H]2CN2CCCC2)c2cc(-c3ccc4c(c3)OCO4)ccc2n1)c1ccccc1 (stereo partly drawn) [NGD-6390]	0.00021	–
O=C(N[C@H]1CCCC[C@@H]1OCc1ccccc1)c1coc(-c2ccc(C(=O)N3CCC(N4CCCC4)CC3)cc2)n1 [NGD-3350]	–	significant activity
CCN(Cc1ccccc1)c1cc(C(=O)N2CCC[C@H]2CN2CCCC2)c2cc(-c3ccc4c(c3)OCO4)ccc2n1 [NGD-6423]	6.5e-05	–

Source: patent publication US20050064510A1, “Ligand analysis” (priority 2003, published 2005)
